Results reported in US9260468B1, “2,3′-anhydro-2′-deoxy-5-fluorouridine derivatives with cytotoxic activity, a manufacturing process and application” (ADAM MICKIEWICZ UNIVERSITY, priority 2014, dated 2016).
Where “and” joins values, the source holds several entries; their conditions need not be identical. Equal values may be shown once. Read-outs that look alike come from different tables or passages of the source.

Columns and labels:
[1] = tested on: MCF-7 (breast cancer); assay: Cytotoxicity test with sulphorhodamine B, MCF-7 line; assay type: cell-based; conditions: for SI, MCF-7: SI = IC50 normal cell line (fibroblasts) / IC50 MCF-7
Description: (§1) Cytotoxic activity tests were performed using the following cancer cell lines: MCF-7 (breast cancer), HeLa (cervical cancer) A549 (lung cancer) and KB (nasopharynx cancer) and normal cells (human dermal fibroblasts, HDF) obtained from ECACC (European Collection of Cell Cultures).
(§2) Cytotoxicity tests were carried out using a standard procedure with sulphorhodamine B. They involved incubation of the cancer cell lines in the logarithmic growth phase for 72 hours with the compound tested and, subsequently, spectrophotometric determination of the degree of cell growth inhibition using adsorption of a dye (sulphorhodamine B) which binds cellular proteins. The determination was carried out according to a procedure reported in: Vichai, V., Kirtikara, K. Nature Protocols, 2006, 1, 1112.
(§3) Cells of the cell line tested in the logarithmic growth phase were seeded onto 24-well plates in a quantity of 20.000 cells/2 mL of the growth medium per well and, subsequently, incubated in an incubator at 37° C., in the 5% CO2 atmosphere for 24 hours.
(§4) Solutions of the test compounds were prepared in DMSO in the following concentrations: 0.05; 0.1; 0.5; 1; 5; 10; 50; 100; 500 μM.
(§5) The cells of the lines tested were treated with the solutions of the test compounds in a laminar-flow chamber which ensured sterile working conditions according to the following procedure: the first three wells were used as a control: they contained 20 μL of DMSO only; successive solutions of the test compound were added to subsequent wells (20 μL), starting with the lowest concentration (three wells for each concentration level). Subsequently, the plates were placed in an incubator at 37° C. for 72 hours. After the end of incubation, the adhered cells were fixed by adding 500 μL of cold (4° C.) 50% trichloroacetic acid (TCA) and incubated at 4° C. for 1 hour. Subsequently, each well was rinsed with sterile water and dried. The rinsing was repeated five times. The fixed cells were stained for 30 minutes by adding 500 μL of 0.4% dye solution (sulphorhodamine B) dissolved in 1% acetic acid. Any unbound dye was removed by decanting it from the plate, and the cells were washed 4 times with 1% acetic acid. Subsequently, the plates were dried in air for approx. 5 minutes. Bounded dye was dissolved by adding 1500 μL of 10 mM Tris-base buffer (trishydroxymethylaminomethane) to each well and shaken using an orbital shaker for 5 minutes. Subsequently, 200 μL of solution from each well was transferred to each of two wells on a new 96-well plate and absorption of the solutions was determined spectrophotometrically at a wavelength of 490-530 nm using a plate reader.
(§6) Cytotoxicity tests for the other compounds and cell lines were performed following an identical procedure.
(§7) The MCF-7 line was grown in Dulbecco's Modified Eagle's Medium (DME) from Sigma (cat. no. D5796), while the HeLa, A549 and KB lines were grown in RPMI-1640 Medium from Sigma (cat. no. R8758).
(§8) IC50 values, being concentration of a compound needed to obtain 50% inhibition of cell growth, were determined for all the derivatives tested.

[2] = tested on: HeLa (cervical cancer); assay: Cytotoxicity test with sulphorhodamine B, HeLa line; assay type: cell-based; conditions: for SI, HeLa: SI = IC50 normal cell line (fibroblasts) / IC50 HeLa
Description: as §1, §2, §3, §4, §5, §6, §7, §8

[3] = tested on: KB (nasopharynx cancer); assay: Cytotoxicity test with sulphorhodamine B, KB line; assay type: cell-based; conditions: for SI, KB: SI = IC50 normal cell line (fibroblasts) / IC50 KB
Description: as §1, §2, §3, §4, §5, §6, §7, §8

[4] = tested on: HBV; conditions: literature (Srivastav et al. 2010); cited from earlier work
[5] = tested on: Huh-7 line; conditions: literature (Srivastav et al. 2010); cited from earlier work
[6] = tested on: A549 (lung cancer); assay: Cytotoxicity test with sulphorhodamine B, A549 line; assay type: cell-based; conditions: for IC50: Homo sapiens
Description: as §1, §2, §3, §4, §5, §6, §7, §8

[7] = Cytotoxicity test with sulphorhodamine B, normal fibroblasts; assay type: cell-based; conditions: human, normal human dermal fibroblasts (HDF), normal cells, 72 hours incubation, read-out: Cytotoxic activity, IC50, Fibroblasts (HDF)
Description: as §1, §2, §3
Solutions of the test compounds were prepared in DMSO in the following concentrations: 0.05; 0.1; 0.5; 1; 5; 10; 50; 100; 500 μM. […]

[8] = 72 hours incubation, sulphorhodamine B, average of three determinations
[9] = class A/MA/NA by IC50 in μg/mL, read-out: Cytotoxic activity class, KB (nasopharynx cancer)
[10] = Homo sapiens, MCF7, class A/MA/NA by IC50 in μg/mL, read-out: Cytotoxic activity class, MCF-7 (breast cancer)
[11] = Homo sapiens, HeLa, class A/MA/NA by IC50 in μg/mL, read-out: Cytotoxic activity class, HeLa (cervical cancer)
[12] = A549, class A/MA/NA by IC50 in μg/mL, read-out: Cytotoxic activity class, A549 (lung cancer)
[13] = Homo sapiens, MCF7, 72 h, read-out: Cytotoxic activity, IC50, MCF-7 (breast cancer)
[14] = Homo sapiens, MCF7, read-out: Cytotoxic activity class, MCF-7 (breast cancer)
[15] = Homo sapiens, HeLa, 72 h, read-out: Cytotoxic activity, IC50, HeLa (cervical cancer)
[16] = Homo sapiens, HeLa, read-out: Cytotoxic activity class, HeLa (cervical cancer)
[17] = 72 h, read-out: Cytotoxic activity, IC50, KB (nasopharynx cancer)
[18] = read-out: Cytotoxic activity class, KB (nasopharynx cancer)

Row | SMILES | IC50 [3, 9] | IC50 [1, 10] | IC50 [2, 11] | IC50 [6, 12] | IC50 [1, 13] | IC50 [1, 14] | SI, MCF-7 [1] | IC50 [2, 15] | IC50 [2, 16] | SI, HeLa [2] | IC50 [3, 17] | SI, KB [3] | IC50 [3, 18] | IC50 at 72 h [7] | further results
1 | O=c1nc2n(cc1F)[C@H]1C[C@@H](O2)[C@@H](CO)O1 [2,3′-anhydro-2′-deoxy-5-fluorouridine] | 4 to 30 µg/mL | – | – | – | – | – | – | – | – | – | – | – | – | – | Cytotoxic activity, IC50, MCF-7 (breast cancer) [1, 8]: 3.7 µg/mL; IC50 ([1]; 72 hours incubation, sulphorhodamine B, read-out: Cytotoxic activity, IC50, MCF-7 (breast cancer)): 16.2 µM; Cytotoxic activity class, MCF-7 (breast cancer) ([1]; class A/MA/NA by IC50 in μg/mL): A (IC50<4 μg/mL are generally assumed as active); Cytotoxic activity, IC50, HeLa (cervical cancer) [2, 8]: 11.0 µg/mL; IC50 ([2]; 72 hours incubation, sulphorhodamine B, read-out: Cytotoxic activity, IC50, HeLa (cervical cancer)): 48.2 µM; Cytotoxic activity class, HeLa (cervical cancer) ([2]; class A/MA/NA by IC50 in μg/mL): MA (IC50 range of 4-30 μg/mL are considered medium active); Cytotoxic activity, IC50, KB (nasopharynx cancer) [3, 8]: 11.0 µg/mL; IC50 ([3]; 72 hours incubation, sulphorhodamine B, read-out: Cytotoxic activity, IC50, KB (nasopharynx cancer)): 48.2 µM; antiviral activity against HBV [4]: weak antiviral activity; cytotoxic activity against the Huh-7 line, IC50 [5]: > 200 µg/mL
2 | O=c1[nH]c(=O)n([C@H]2C[C@H](O)[C@@H](CO)O2)cc1F [5-fluoro-2′-deoxyuridine, reference compound] | < 4 µg/mL | < 4 µg/mL | < 4 µg/mL | < 4 µg/mL | – | – | – | – | – | – | – | – | – | – | –
3 | O=c1[nH]cc(F)c(=O)[nH]1 [5-fluorouracil, reference compound] | < 4 µg/mL | < 4 µg/mL | < 4 µg/mL | < 4 µg/mL | – | – | – | – | – | – | – | – | – | – | –
4 | O=c1nc2n(cc1F)C1CC(O2)C(COP(=O)(NCC(F)(F)F)Oc2ccc(Cl)cc2)O1 (centres unmarked) [FEAdFU, 2,3′-anhydro-2′-deoxy-5-fluorouridine 5′-[N-(2,2,2-trifluoroethyl)-O-(4-chlorophenyl)]phosphate] | – | – | – | – | 240 nM and 0.12 µg/mL | < 4 µg/mL | 50 | 360 nM and 0.18 µg/mL | < 4 µg/mL | 33 and 33.3 | 400 nM and 0.2 µg/mL | 30 | < 4 µg/mL | 6 µg/mL and 12 µM | fold higher activity than 5FU, MCF-7 ([1]; versus 5FU): more than 75 fold; fold higher activity than 5FdU, MCF-7 ([1]; versus 5FdU): more than 47 fold; fold higher activity than AdFU, MCF-7 ([1]; versus AdFU): 67 fold; fold higher cytotoxicity than 5FU, HeLa ([2]; versus 5FU): more than 58 fold; fold higher cytotoxicity than 5FdU, HeLa ([2]; versus 5FdU): more than 36 fold; fold higher cytotoxicity than AdFU, HeLa ([2]; versus AdFU): more than 133 fold; IC50 ([6]; A549, 72 h, read-out: Cytotoxic activity, IC50, A549 (lung cancer)): 400 nM and 0.2 µg/mL; IC50 ([6]; A549, read-out: Cytotoxic activity class, A549 (lung cancer)): < 4 µg/mL; SI, A549 ([6]; SI = IC50 normal cell line (fibroblasts) / IC50 A549): 30; fold higher cytotoxicity than 5FU, A549 ([6]; versus 5FU): more than 53 fold; fold higher cytotoxicity than 5FdU, A549 ([6]; versus 5FdU): more than 33 fold; fold higher cytotoxicity than 5FU, KB ([3]; versus 5FU): more than 55 fold; fold higher cytotoxicity than 5FdU, KB ([3]; versus 5FdU): more than 34 fold; fold higher cytotoxicity than AdFU, KB ([3]; versus AdFU): 120 fold
5 | O=c1nc2n(cc1F)C1CC(O2)C(COP(=O)(NCCF)Oc2ccc(Cl)cc2)O1 (centres unmarked) [MFEAdFU] | – | – | – | – | 11.8 µg/mL and 25.4 µM | 4 to 30 µg/mL | 3.7 | 16 µg/mL and 34.5 µM | 4 to 30 µg/mL | 2.7 | 12.2 µg/mL and 26.3 µM | 3.5 | 4 to 30 µg/mL | 43.1 µg/mL and 92.9 µM | –
